Assays:
Assay in all cases: Herbicidal effect by foliage and soil treatment
Type in all cases: in vivo
Details in all cases: 10 g ai/10a, evaluated after 14 days
[1] = test system: black nightshade (Solanum nigrum)
Text: (§1) Experiment for Determination of Herbicidal Effect by Foliate and Soil Treatment Seeds of redroot pigweed (Amaranthus retroflexus), common blackjack (Bidens pilosa), kediock (Sinapis arvensis), common chickweed (Stellaria media), sicklepod (Cassia obtusifolia), black nightshade (Solanum nigrum), velvetleaf (Abutilon theophrasti), field bindweed (Convolvulus arvensis), wild chamomile (Matricaria chamomilla), cleavers (Galium aparine) and […] (Veronica hederaefolia), were uniformly sowed over a horticultural granular soil (produced by KUREHA CHEMICAL INDUSTRY, CO., LTD.; the same soil was used hereinafter) filled in a planter. The planter was placed in a greenhouse (maintained at 19 to 25° C.) to sprout these plants. Two seedlings of each sprouted plant were transplanted to a 10 cm-diameter pot filled with the horticultural granular soil and cultivated in the greenhouse (maintained at 19 to 25° C.) until reaching a cotyledonal to bifoliate period suited to the foliage and soil treatment. […] Next, additional amounts of Tween 20 and water were added to the obtained solution or suspension to produce a test solution. The plants prepared in the above (1) were placed within a frame having a predetermined inside area, and uniformly sprayed with the test solution using a sprayer such that the amount of each compound applied was controlled to a predetermined level. The plants sprayed with the test solution were placed again in the greenhouse (maintained at 19 to 25° C.) and cultivated therein. After 14 days, the degree of growth of each plant cultivated in the treated region was compared with that of plant cultivated in non-treated region, and evaluated according to the following ratings. The herbicidal activity of each test compound was represented by these ratings

[2] = test system: cleavers (Galium aparine)
Text: as §1

[3] = test system: common blackjack (Bidens pilosa)
Text: as §1

[4] = test system: common chickweed (Stellaria media)
Text: as §1

[5] = test system: field bindweed (Convolvulus arvensis)
Text: as §1

[6] = test system: ivyleafspeedwell (Veronica hederaefolia)
Text: as §1

[7] = test system: kediock (Sinapis arvensis)
Text: as §1

[8] = test system: redroot pigweed (Amaranthus retroflexus)
Text: as §1

[9] = test system: sicklepod (Cassia obtusifolia)
Text: as §1

[10] = test system: velvetleaf (Abutilon theophrasti)
Text: as §1

[11] = test system: wild chamomile (Matricaria chamomilla)
Text: as §1

Row | SMILES | herbicidal activity rating, SN (Solanum nigrum) [1] | herbicidal activity rating, GA (Galium aparine) [2] | herbicidal activity rating, BP (Bidens pilosa) [3] | herbicidal activity rating, SM (Stellaria media) [4] | herbicidal activity rating, CA (Convolvulus arvensis) [5] | herbicidal activity rating, VH (Veronica hederaefolia) [6] | herbicidal activity rating, SA (Sinapis arvensis) [7] | herbicidal activity rating, AR (Amaranthus retroflexus) [8] | herbicidal activity rating, CO (Cassia obtusifolia) [9] | herbicidal activity rating, AT (Abutilon theophrasti) [10] | herbicidal activity rating, MC (Matricaria chamomilla) [11]
1 | COc1cc(Oc2cccc(OC(F)(F)F)c2)nc(C(=O)Nc2ccccc2)c1 [Compound I-20, N-phenyl-4-methoxy-6-{3-(trifluoromethoxy)phenoxy}-2-pyridine carboxamide] | 5 (percentage of weeds killed was not less than 80%) | 5 (percentage of weeds killed was not less than 80%) | 5 (percentage of weeds killed was not less than 80%) | 5 (percentage of weeds killed was not less than 80%) | 4 (percentage of weeds killed was not less than 60% and less than 80%) | 5 (percentage of weeds killed was not less than 80%) | 5 (percentage of weeds killed was not less than 80%) | 5 (percentage of weeds killed was not less than 80%) | 5 (percentage of weeds killed was not less than 80%) | 4 (percentage of weeds killed was not less than 60% and less than 80%) | 4 (percentage of weeds killed was not less than 60% and less than 80%)
2 | CCCNC(=O)c1cc(OC)cc(Oc2cccc(C(F)(F)F)c2)n1 [Compound I-33, N-(n-propyl)-4-methoxy-6-{3-(trifluoromethyl)phenoxy}-2-pyridine carboxamide] | 5 (percentage of weeds killed was not less than 80%) | 5 (percentage of weeds killed was not less than 80%) | 5 (percentage of weeds killed was not less than 80%) | 5 (percentage of weeds killed was not less than 80%) | 4 (percentage of weeds killed was not less than 60% and less than 80%) | 5 (percentage of weeds killed was not less than 80%) | 5 (percentage of weeds killed was not less than 80%) | 5 (percentage of weeds killed was not less than 80%) | 5 (percentage of weeds killed was not less than 80%) | 5 (percentage of weeds killed was not less than 80%) | 5 (percentage of weeds killed was not less than 80%)
3 | CCCNC(=S)c1cc(OC)cc(Oc2cccc(C(F)(F)F)c2)n1 [Compound I-34, N-(n-propyl)-4-methoxy-6-{3-(trifluoromethyl)phenoxy}-2-pyridine thiocarboxamide] | 5 (percentage of weeds killed was not less than 80%) | 5 (percentage of weeds killed was not less than 80%) | 5 (percentage of weeds killed was not less than 80%) | 5 (percentage of weeds killed was not less than 80%) | 4 (percentage of weeds killed was not less than 60% and less than 80%) | 5 (percentage of weeds killed was not less than 80%) | 5 (percentage of weeds killed was not less than 80%) | 5 (percentage of weeds killed was not less than 80%) | 5 (percentage of weeds killed was not less than 80%) | 5 (percentage of weeds killed was not less than 80%) | 5 (percentage of weeds killed was not less than 80%)
4 | COc1cc(Oc2cccc(C(F)(F)F)c2)nc(C(=O)NCCCl)c1 [Compound I-35] | 5 (percentage of weeds killed was not less than 80%) | 5 (percentage of weeds killed was not less than 80%) | 5 (percentage of weeds killed was not less than 80%) | 5 (percentage of weeds killed was not less than 80%) | 5 (percentage of weeds killed was not less than 80%) | 5 (percentage of weeds killed was not less than 80%) | 5 (percentage of weeds killed was not less than 80%) | 5 (percentage of weeds killed was not less than 80%) | 5 (percentage of weeds killed was not less than 80%) | 5 (percentage of weeds killed was not less than 80%) | 5 (percentage of weeds killed was not less than 80%)
5 | CCCCNC(=O)c1cc(OC)cc(Oc2cccc(C(F)(F)F)c2)n1 [Compound I-36] | 5 (percentage of weeds killed was not less than 80%) | 5 (percentage of weeds killed was not less than 80%) | 5 (percentage of weeds killed was not less than 80%) | 5 (percentage of weeds killed was not less than 80%) | 5 (percentage of weeds killed was not less than 80%) | 5 (percentage of weeds killed was not less than 80%) | 5 (percentage of weeds killed was not less than 80%) | 5 (percentage of weeds killed was not less than 80%) | 5 (percentage of weeds killed was not less than 80%) | 4 (percentage of weeds killed was not less than 60% and less than 80%) | 5 (percentage of weeds killed was not less than 80%)
6 | COc1cc(Oc2cccc(C(F)(F)F)c2)nc(C(=O)NC(C)C)c1 [Compound I-37, N-(i-propyl)-4-methoxy-6-{3-(trifluoromethyl)phenoxy}-2-pyridine carboxamide] | 5 (percentage of weeds killed was not less than 80%) | 5 (percentage of weeds killed was not less than 80%) | 5 (percentage of weeds killed was not less than 80%) | 5 (percentage of weeds killed was not less than 80%) | 5 (percentage of weeds killed was not less than 80%) | 5 (percentage of weeds killed was not less than 80%) | 5 (percentage of weeds killed was not less than 80%) | 5 (percentage of weeds killed was not less than 80%) | 5 (percentage of weeds killed was not less than 80%) | 4 (percentage of weeds killed was not less than 60% and less than 80%) | 5 (percentage of weeds killed was not less than 80%)
7 | COc1cc(Oc2cccc(OC(F)F)c2)nc(C(=O)NC(C)C)c1 [Compound I-38] | 5 (percentage of weeds killed was not less than 80%) | 5 (percentage of weeds killed was not less than 80%) | 2 (percentage of weeds killed was not less than 20% and less than 40%) | 4 (percentage of weeds killed was not less than 60% and less than 80%) | 4 (percentage of weeds killed was not less than 60% and less than 80%) | 5 (percentage of weeds killed was not less than 80%) | 5 (percentage of weeds killed was not less than 80%) | 5 (percentage of weeds killed was not less than 80%) | 4 (percentage of weeds killed was not less than 60% and less than 80%) | 4 (percentage of weeds killed was not less than 60% and less than 80%) | 4 (percentage of weeds killed was not less than 60% and less than 80%)

From US6339045B1, “N-(unsubstituted or substituted)-4-substituted-6-(unsubstituted or substituted)phenoxy-2-pyridinecarboxamides or thiocarboxamides, processes for producing the same, and herbicides” (Kureha Kagaku Kogyo Kabushiki Kaisha, priority 1995, dated 2002)
